According to PubChem BioAssay (NCI):
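Abbreviation: GI50, concentration required for 50% inhibition of growth. TGI marks complete inhibition of growth.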

What was measured:
Assay in all cases: DTP human tumour cell line panel, 384-well format; in the data active means GI50 below about 0.43 µM; inactive means the rest
A549 NSCLC = test system: A549 NSCLC
SF-268 CNS = test system: SF-268 CNS
MCF7 breast = test system: MCF7 breast
SW-620 colon = test system: SW-620 colon
PC-3 prostate = test system: PC-3 prostate
NCI-H460 NSCLC = test system: NCI-H460 NSCLC
RXF 393 renal = test system: RXF 393 renal
HCC-2998 colon = test system: HCC-2998 colon
SR leukemia = test system: SR leukemia
TK-10 renal = test system: TK-10 renal
OVCAR-4 ovarian = test system: OVCAR-4 ovarian
HOP-62 NSCLC = test system: HOP-62 NSCLC
BT-549 breast = test system: BT-549 breast
SF-539 CNS = test system: SF-539 CNS
KM12 colon = test system: KM12 colon
HCT-116 colon = test system: HCT-116 colon
HOP-92 NSCLC = test system: HOP-92 NSCLC
T-47D breast = test system: T-47D breast
SK-MEL-5 melanoma = test system: SK-MEL-5 melanoma
ACHN renal = test system: ACHN renal
HT29 colon = test system: HT29 colon
CAKI-1 renal = test system: CAKI-1 renal
MDA-MB-231 breast = test system: MDA-MB-231 breast
HCT-15 colon = test system: HCT-15 colon
NCI/ADR-RES ovarian = test system: NCI/ADR-RES ovarian
RPMI-8226 leukemia = test system: RPMI-8226 leukemia
COLO 205 colon = test system: COLO 205 colon
NCI-H522 lung = test system: NCI-H522 lung
K-562 leukemia = test system: K-562 leukemia
NCI-H23 lung = test system: NCI-H23 lung
786-0 renal = test system: 786-0 renal
HS 578T breast = test system: HS 578T breast
LOX IMVI melanoma = test system: LOX IMVI melanoma
OVCAR-5 ovarian = test system: OVCAR-5 ovarian
NCI-H322M lung = test system: NCI-H322M lung
SN12C renal = test system: SN12C renal
UO-31 renal = test system: UO-31 renal
UACC-257 melanoma = test system: UACC-257 melanoma
SNB-19 CNS = test system: SNB-19 CNS
MDA-MB-435 melanoma = test system: MDA-MB-435 melanoma
OVCAR-3 ovarian = test system: OVCAR-3 ovarian
U251 glioblastoma = test system: U251 glioblastoma
SK-OV-3 ovarian = test system: SK-OV-3 ovarian
EKVX NSCLC = test system: EKVX NSCLC
OVCAR-8 ovarian = test system: OVCAR-8 ovarian
DU-145 prostate = test system: DU-145 prostate
IGROV1 ovarian = test system: IGROV1 ovarian

Cn1cc(-c2ccc(-c3cncc(Cl)c3N3CCC4(CCNC4=O)CC3)cc2)cn1
48.2 µM: TGI (NCI-H522 lung)
99.9 µM: TGI (TK-10 renal)
47.3 µM: TGI (HCT-116 colon)
48.4 µM: TGI (T-47D breast)
> 91.6 µM: TGI (MDA-MB-435 melanoma)
81.9 µM: TGI (ACHN renal)
> 60 µM: TGI (COLO 205 colon)
98 µM: TGI (A549 NSCLC)
33.5 µM: TGI (SK-MEL-5 melanoma)
62.2 µM: TGI (NCI-H460 NSCLC) | TGI (DU-145 prostate)
> 100 µM: TGI (SF-268 CNS) | TGI (PC-3 prostate) | TGI (SF-539 CNS) | TGI (HOP-92 NSCLC) | TGI (CAKI-1 renal) | TGI (K-562 leukemia) | TGI (HS 578T breast) | TGI (OVCAR-5 ovarian) | TGI (SN12C renal) | TGI (UO-31 renal) | TGI (SNB-19 CNS) | TGI (SK-OV-3 ovarian) | TGI (OVCAR-8 ovarian) | TGI (IGROV1 ovarian)
> 76.7 µM: TGI (MDA-MB-231 breast)
> 95.3 µM: TGI (NCI-H322M lung)
> 66.4 µM: TGI (HCT-15 colon)
inactive: GI50 (A549 NSCLC) 24.5 µM | GI50 (SF-268 CNS) 45.8 µM | GI50 (MCF7 breast) 15.9 µM | GI50 (SW-620 colon) 12.3 µM | GI50 (PC-3 prostate) 26.3 µM | GI50 (NCI-H460 NSCLC) 21.1 µM | GI50 (RXF 393 renal) 14.7 µM | GI50 (HCC-2998 colon) 15.5 µM | GI50 (TK-10 renal) 11.2 µM | GI50 (OVCAR-4 ovarian) 39.6 µM | GI50 (HOP-62 NSCLC) 15.2 µM | GI50 (BT-549 breast) 19.9 µM | GI50 (SF-539 CNS) 41.4 µM | GI50 (KM12 colon) 21.3 µM | GI50 (HCT-116 colon) 13.8 µM | GI50 (HOP-92 NSCLC) 40.6 µM | GI50 (T-47D breast) 13.5 µM | GI50 (SK-MEL-5 melanoma) 15.6 µM | GI50 (ACHN renal) 15.4 µM | GI50 (HT29 colon) 9.55 µM | GI50 (CAKI-1 renal) 22.5 µM | GI50 (MDA-MB-231 breast) 17.1 µM | GI50 (HCT-15 colon) 14.6 µM | GI50 (NCI/ADR-RES ovarian) 22.1 µM | GI50 (RPMI-8226 leukemia) 1.17 µM | GI50 (COLO 205 colon) 16.3 µM | GI50 (NCI-H522 lung) 13.1 µM | GI50 (K-562 leukemia) 19 µM | GI50 (NCI-H23 lung) 22.5 µM | GI50 ([…]-0 renal) 11.8 µM | GI50 (HS 578T breast) 49.1 µM | GI50 (LOX IMVI melanoma) 29.5 µM | GI50 (OVCAR-5 ovarian) > 100 µM | GI50 (NCI-H322M lung) 22.3 µM | GI50 (SN12C renal) 45.2 µM | GI50 (UO-31 renal) 26.9 µM | GI50 (UACC-257 melanoma) 35.6 µM | GI50 (SNB-19 CNS) 47.4 µM | GI50 (MDA-MB-435 melanoma) 30.1 µM | GI50 (OVCAR-3 ovarian) 17.3 µM | GI50 (U251 glioblastoma) 30.4 µM | GI50 (SK-OV-3 ovarian) 34 µM | GI50 (EKVX NSCLC) 20.8 µM | GI50 (OVCAR-8 ovarian) 25.1 µM | GI50 (DU-145 prostate) 11 µM | GI50 (IGROV1 ovarian) 25.2 µM
52.8 µM: TGI (MCF7 breast)
> 96.1 µM: TGI (RXF 393 renal)
> 71.5 µM: TGI (NCI/ADR-RES ovarian)
78.8 µM: TGI (EKVX NSCLC)
51.3 µM: TGI (OVCAR-3 ovarian)
39.9 µM: TGI (HOP-62 NSCLC)
> 80.1 µM: TGI (U251 glioblastoma)
> 92.2 µM: TGI (786-0 renal)
0.485 µM: TGI (SR leukemia)
> 93.3 µM: TGI (HT29 colon)
58.5 µM: TGI (BT-549 breast)
> 86.5 µM: TGI (SW-620 colon)
47.9 µM: TGI (HCC-2998 colon)
> 94.3 µM: TGI (KM12 colon)
> 71.3 µM: TGI (UACC-257 melanoma)
> 75.1 µM: TGI (LOX IMVI melanoma)
18.4 µM: TGI (RPMI-8226 leukemia)
59 µM: TGI (NCI-H23 lung)
> 90 µM: TGI (OVCAR-4 ovarian)

COc1ccc2c(Oc3ccc(NC(=O)c4c(C)n(CC(C)(C)O)n(-c5ccccc5)c4=O)nc3)ccnc2c1
41.1 µM: TGI (HOP-92 NSCLC)
34.6 µM: TGI (HS 578T breast)
64 µM: TGI (SF-539 CNS)
19.4 µM: TGI (RPMI-8226 leukemia)
29.1 µM: TGI (MDA-MB-231 breast)
inactive: GI50 (A549 NSCLC) 16.8 µM | GI50 (SF-268 CNS) 19.9 µM | GI50 (MCF7 breast) 46.4 µM | GI50 (SW-620 colon) 56.2 µM | GI50 (PC-3 prostate) 18.5 µM | GI50 (NCI-H460 NSCLC) 14.3 µM | GI50 (RXF 393 renal) 2.42 µM | GI50 (HCC-2998 colon) > 100 µM | GI50 (SR leukemia) 6.58 µM | GI50 (TK-10 renal) 10.8 µM | GI50 (OVCAR-4 ovarian) 15.2 µM | GI50 (HOP-62 NSCLC) 15.3 µM | GI50 (BT-549 breast) 11.5 µM | GI50 (SF-539 CNS) 10.1 µM | GI50 (KM12 colon) 0.73 µM | GI50 (HCT-116 colon) 10.5 µM | GI50 (HOP-92 NSCLC) 10.4 µM | GI50 (T-47D breast) 33.7 µM | GI50 (SK-MEL-5 melanoma) 13.8 µM | GI50 (ACHN renal) 5.81 µM | GI50 (HT29 colon) 39.9 µM | GI50 (CAKI-1 renal) 3.45 µM | GI50 (MDA-MB-231 breast) 9.28 µM | GI50 (HCT-15 colon) 6.05 µM | GI50 (NCI/ADR-RES ovarian) 25.7 µM | GI50 (RPMI-8226 leukemia) 6.85 µM | GI50 (COLO 205 colon) 42.2 µM | GI50 (NCI-H522 lung) 14.4 µM | GI50 (K-562 leukemia) 1.16 µM | GI50 (NCI-H23 lung) 10.8 µM | GI50 ([…]-0 renal) 19.8 µM | GI50 (HS 578T breast) 4.65 µM | GI50 (LOX IMVI melanoma) 47.2 µM | GI50 (OVCAR-5 ovarian) 37.8 µM | GI50 (NCI-H322M lung) 10.3 µM | GI50 (SN12C renal) 2.24 µM | GI50 (UO-31 renal) 18.4 µM | GI50 (UACC-257 melanoma) 25.1 µM | GI50 (SNB-19 CNS) 34.1 µM | GI50 (MDA-MB-435 melanoma) 12.3 µM | GI50 (OVCAR-3 ovarian) 13 µM | GI50 (U251 glioblastoma) 24.7 µM | GI50 (SK-OV-3 ovarian) 4.04 µM | GI50 (EKVX NSCLC) 37.3 µM | GI50 (OVCAR-8 ovarian) 13.8 µM | GI50 (DU-145 prostate) 8.18 µM | GI50 (IGROV1 ovarian) 9.46 µM
30.2 µM: TGI (HCT-116 colon)
100 µM: TGI (TK-10 renal)
9.27 µM: TGI (RXF 393 renal)
53.7 µM: TGI (MDA-MB-435 melanoma)
2.51 µM: TGI (K-562 leukemia)
86.8 µM: TGI (SN12C renal)
25.7 µM: TGI (BT-549 breast)
54.1 µM: TGI (NCI-H522 lung)
> 100 µM: TGI (A549 NSCLC) | TGI (SF-268 CNS) | TGI (MCF7 breast) | TGI (SW-620 colon) | TGI (PC-3 prostate) | TGI (NCI-H460 NSCLC) | TGI (HCC-2998 colon) | TGI (OVCAR-4 ovarian) | TGI (HOP-62 NSCLC) | TGI (KM12 colon) | TGI (T-47D breast) | TGI (SK-MEL-5 melanoma) | TGI (ACHN renal) | TGI (HT29 colon) | TGI (CAKI-1 renal) | TGI (HCT-15 colon) | TGI (NCI/ADR-RES ovarian) | TGI (COLO 205 colon) | TGI (NCI-H23 lung) | TGI (786-0 renal) | TGI (LOX IMVI melanoma) | TGI (OVCAR-5 ovarian) | TGI (NCI-H322M lung) | TGI (UO-31 renal) | TGI (UACC-257 melanoma) | TGI (SNB-19 CNS) | TGI (U251 glioblastoma) | TGI (SK-OV-3 ovarian) | TGI (EKVX NSCLC) | TGI (OVCAR-8 ovarian) | TGI (DU-145 prostate) | TGI (IGROV1 ovarian)
31.6 µM: TGI (OVCAR-3 ovarian)
19 µM: TGI (SR leukemia)
